Data published in US20230029570A1, “Bacillus Strain for Applications in Agriculture, Livestock Health and Environmental Protection” (Locus IP Company, LLC, priority 2020, published 2023).

Key:
[1] = test system: E. coli; experiment: Reduction in optical density at 600 nm of E. coli cultures treated with cleaning compositions; format: cell-based; settings: 250 ppm
Experimental: The lipopeptide mixture produced by B. amy can be used in environmentally-friendly cleaning compositions and to enhance antimicrobial activity of other biosurfactants. Cleaning compositions were tested for their ability to control Gram-negative E. coli. Reduction in optical density at 600 nm (OD) was measured for cultures treated with each of the following compositions: […]

[2] = test system: Staphylococcus sp.; experiment: Reduction in optical density at 600 nm of Staphylococcus sp. cultures treated with cleaning compositions; format: cell-based
Experimental: Cleaning compositions according to embodiments of the subject invention were also tested for their ability to control a Gram-positive Staphylococcus sp. Reduction in optical density at 600 nm (OD) was measured for cultures treated with each of the following compositions: […]

| Substance | OD600 % reduction after 2 hours [1] [%] | OD600 % reduction after 2 hours ([2]; 250 ppm) [%] | OD600 % reduction after 2 hours ([2]; 100 ppm) [%] | OD600 % reduction after 2 hours ([2]; 50 ppm) [%] |
| --- | --- | --- | --- | --- |
| linear SLP butyl ester | 91.5 | 88.1 | – | – |
| linear SLP ethyl ester | 89.8 | – | 98.3 | – |
| linear SLP isopropyl ester | 86.4 | – | – | 91.5 |
